# T1: RNase P holoenzyme from Thermotoga maritima (Thermotoga maritima, UniProt Q9X1H4)
# T1 construct: made in house
# T1 sequence (Q9X1H4 1-117): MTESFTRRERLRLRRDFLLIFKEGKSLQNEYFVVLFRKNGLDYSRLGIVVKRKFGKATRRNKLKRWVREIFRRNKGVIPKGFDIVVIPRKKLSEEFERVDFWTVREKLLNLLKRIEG
# T2: RNase P protein (TmP, P protein) (Thermotoga maritima, UniProt Q9X1H4 1-117)
# T2 sequence: T1 sequence (Q9X1H4 1-117)
# B1: 5' RNA leader (10 nt) (ssRNA)
# RNA: GGAAAAAGAU
# Experiments:
# [1] = target: T1, RNase P holoenzyme from Thermotoga maritima; experiment: Real-time fluorescence-based (FRET) RNase P activity assay with minihelix (Mh) substrate; type: biochemical; settings: fluorescent Mh substrate 270 nM, holoenzyme 33 nM, 10% DMSO, 37°C, 400 mM AmOAc, 100 mM MgCl2
# Summary of the method: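 Reconstituted holoenzyme (P RNA:P protein 1:1.1) at 33 nM with 270 nM minihelix labelled Alexa Fluor 488/BHQ quencher, in buffer H (pH 7.4, 400 mM AmOAc, 100 mM MgCl2), 10% DMSO, 37°C. Cleavage followed as fluorescence increase (ex 485, em 535 nm); initial velocities from linear slopes.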
# [2] = target: Bacillus subtilis RNase P; set-up: method as in PMID 25249623; settings: fluorescent pre-tRNA substrate ref 26; read-out: Reported IC50; cited from earlier work
# [3] = target: T2, RNase P protein (TmP, P protein); experiment: BLI; 10 mM Mg2+, 5% DMSO; BLI (Octet RED96): 20 mM HEPES pH 7.4, 100 mM ammonium acetate, 10 mM MgCl2, 2.5-5% DMSO, 30 C; P protein:P RNA in 33 mM Tris, 66.6 mM HEPES, 200 mM ammonium acetate, 10 mM MgCl2, pH 7.4; settings: protein: recombinant; tags: N-terminal His6 (GST fusion cleaved with TEV); single strand
Molecule,IC50 [1] [nM],IC50 [2] [nM],Kd [3] [nM]
"CC(=O)Oc1cc(-c2coc3cc(OC(C)=O)c(OC(C)=O)c(OC(C)=O)c3c2=O)cc(OC(C)=O)c1OC(C)=O [iriginol hexaacetate, reference compound]",29500,800,
B1,,,35.6

# Reference: paper PMC6614837 (Nucleic Acids Research, 2019)
